The results in this text go back to ChEMBL document CHEMBL1149974, “New Oligosaccharidic Crown Ethers as Potential Drug-Targetting Vectors: Synthesis & Biological Evaluation” (1994).

One may read the MIC as the least concentration at which growth counts as inhibited. Low values mean inhibition by little substance, high ones a need for much substance.

In brackets after ≈: the same amount, converted by molar mass.

The test system of the experiment is Saccharomyces cerevisiae. Kind of experiment: Minimum inhibitory concentration required for in vitro inhibition of flocculation against cell wall galactose-specific yeast lectin (KbCWL). The format is functional.
`CO[C@@H]1O[C@H](CO)[C@H](O)[C@H](O)[C@H]1O` came in with an MIC of 1750 µM (≈ 340 µg/mL).

In the case of `CO[C@H]1O[C@@H](C)[C@@H](O[C@@H]2O[C@@H](CO)[C@@H](O[C@@H]3O[C@@H](CO)[C@H](O)[C@H](O)[C@@H]3O)[C@H](O)[C@@H]2O)[C@@H]2OCCOCCOc3ccccc3OCCOCCO[C@H]12`, the lowest concentration to inhibit growth (MIC) was 3000 µM (≈ 2260 µg/mL).

The molecule LACTOSE, ANHYDROUS returned an MIC of 1250 µM.

`CO[C@H]1O[C@@H](C)[C@@H](O[C@@H]2O[C@@H](CO)[C@H](O)C(O)[C@@H]2O)C2OCCOCCOc3ccccc3OCCOCCO[C@@H]21` (single isomer, unassigned) came in with a minimum inhibitory concentration (MIC) of 2650 µM (≈ 1570 µg/mL).

With `O=C[C@H](O)[C@@H](O)[C@@H](O)[C@H](O)CO` [GALACTOSE], the MIC was determined as 3500 µM (≈ 631 µg/mL).
